Patent US20230338370A1, “Treatment of Cancer with TOR Kinase Inhibitors” (Signal Pharmaceuticals, LLC, priority 2012, published 2023)

Legend:
Assay type in all cases: cell-based
HCC1143 [1] = test: Growth inhibition assay for Breast Cancer (BC) Cell lines; conditions: Homo sapiens; HCC1143, TN; 96 hours, Cell Titer-Glo
Method: (§1) Growth inhibition assay for Breast Cancer (BC) Cell lines. Compounds 1 (a TOR kinase inhibitor set forth herein having molecular formula C16H16N8O) and 2 (a TOR kinase inhibitor set forth herein having molecular formula C17H18N8O2) were dissolved in dimethyl sulfoxide (DMSO) to prepare a 10 mM stock solution. A serial titration was performed to produce a working concentration range of 1.5 µM to 10 mM. Aliquots to produce final concentrations of 1.5 nM to 10 µM were spotted via an acoustic dispenser (EDC ATS-100) into an empty 384-well plate. Compounds 1 and 2 were spotted in a 10-point serial dilution fashion (3-fold dilution) in duplicate within the plate. The DMSO concentration was kept constant for a final assay concentration of 0.1% DMSO. Plates were replicated for use with different cell lines and testing periods. After compound plate replication, all plates were sealed (Agilent ThermoLoc) and stored at -20° C. for up to 1 month. […] When ready for testing, plates were removed from the freezer, thawed, and unsealed just prior to the addition of the test cells. Prior to testing, cells were grown and expanded in culture flasks to provide sufficient amounts of starting material. Cells were then diluted to the appropriate densities and added directly to the compound-spotted 384-well plates. Cells were allowed to grow for 96 hours at 37° C./5% CO2. At the time when compound was added (t0), initial cell number was assessed via a viability assay (Cell Titer-Glo) by quantifying the level of luminescence generated by ATP present in viable cells. After 96 hours, cell viability of compound-treated cells was assessed via Cell Titer-Glo and luminescence measurement. Cell lines were assayed for growth inhibition by Compounds 1 and 2 in at least 3 independent tests. A control cell line (the lung tumor cell line, A549) was included in each of the assays. The compound response against this control cell line was monitored closely to enable comparison of the data generated through the assay period. All data were normalized and presented as a percentage of the DMSO-treated cells. Results were then expressed as a GI50 value. The GI50 value corrects for the cell count at time zero.

HCC70 [2] = test: as above; conditions: Homo sapiens; HCC70, TN; 96 hours, Cell Titer-Glo
Method: as §1

MDA-MB-468 [3] = test: as above; conditions: Homo sapiens; MDA-MB-468, TN; 96 hours, Cell Titer-Glo
Method: as §1

MT-3 [4] = test: as above; conditions: MT-3, TN; 96 hours, Cell Titer-Glo
Method: as §1

BT-20 = test: Apoptosis assay for BC Cell lines (Caspase 3/7-Glo); conditions: BT-20, TN; 24 hours
Method: (§2) Apoptosis assay for BC Cell lines. Prior to testing, cells were grown and expanded in culture flasks to provide sufficient amounts of starting material. Cells were then diluted to their desired densities and added directly to compound-spotted 384-well plates. Cells were allowed to grow for 24 hours in 5% CO2 at 37° C. The apoptotic response was assessed by quantifying the activities of caspase 3 and caspase 7 (Caspase 3/7-Glo) in treated cells and control cells at the 24-hour time point. All data was normalized and represented as a value relative to the DMSO-treated cells. Results were then expressed as CalX, which is the minimum compound concentration required to double the levels of caspase 3/7 relative to those of the DMSO-treated cells during their treatment period.

BT-549 = test: as above; conditions: BT-549, TN; 24 hours
Method: as §2

CAL-120 = test: as above; conditions: CAL-120, TN; 24 hours
Method: as §2

CAL-148 = test: as above; conditions: CAL-148, TN; 24 hours
Method: as §2

CAL-51 = test: as above; conditions: CAL-51, TN; 24 hours
Method: as §2

CAL-85-1 = test: as above; conditions: CAL-85-1, TN; 24 hours
Method: as §2

DU4475 = test: as above; conditions: DU4475, TN; 24 hours
Method: as §2

HCC1143 [5] = test: as above; conditions: HCC1143, TN; 24 hours
Method: as §2

HCC1187 = test: as above; conditions: HCC1187, TN; 24 hours
Method: as §2

HCC1806 = test: as above; conditions: HCC1806, TN; 24 hours
Method: as §2

HCC1937 = test: as above; conditions: HCC1937, TN; 24 hours
Method: as §2

HCC2157 = test: as above; conditions: HCC2157, TN; 24 hours
Method: as §2

HCC38 = test: as above; conditions: HCC38, TN; 24 hours
Method: as §2

HCC70 [6] = test: as above; conditions: HCC70, TN; 24 hours
Method: as §2

HDQ-P1 = test: as above; conditions: HDQ-P1, TN; 24 hours
Method: as §2

HS578T = test: as above; conditions: TN, 24 hours
Method: as §2

MB157 = test: as above; conditions: MB157, TN; 24 hours
Method: as §2

MDA-MB-157 = test: as above; conditions: MDA-MB-157, TN; 24 hours
Method: as §2

MDA-MB-231 = test: as above; conditions: MDA-MB-231, TN; 24 hours
Method: as §2

MDA-MB-436 = test: as above; conditions: MDA-MB-436, TN; 24 hours
Method: as §2

MDA-MB-468 [7] = test: as above; conditions: MDA-MB-468, TN; 24 hours
Method: as §2

MT-3 [8] = test: as above; conditions: MT-3, TN; 24 hours
Method: as §2

CCN1C(=O)CNc2ncc(-c3ccc(-c4nc[nH]n4)nc3C)nc21 [Compound 1, 1-ethyl-7-(2-methyl-6-(1H-1,2,4-triazol-3-yl)pyridin-3-yl)-3,4-dihydropyrazino[2,3-b]pyrazin-2(1H)-one]
GI50 (HCC1143 [1]): 400 nM
GI50 (HCC70 [2]): 94.2 nM
GI50 (MDA-MB-468 [3]): 87.2 nM
GI50 (MT-3 [4]): 150 nM
CalX (minimum compound concentration required to double the levels of caspase 3/7) (BT-20): 0.6025 µM
CalX (minimum compound concentration required to double the levels of caspase 3/7) (BT-549): ≥10 µM
CalX (minimum compound concentration required to double the levels of caspase 3/7) (CAL-120): ≥10 µM
CalX (minimum compound concentration required to double the levels of caspase 3/7) (CAL-148): 0.1583 µM
CalX (minimum compound concentration required to double the levels of caspase 3/7) (CAL-51): 0.3611 µM
CalX (minimum compound concentration required to double the levels of caspase 3/7) (CAL-85-1): ≥10 µM
CalX (minimum compound concentration required to double the levels of caspase 3/7) (DU4475): 0.9448 µM
CalX (minimum compound concentration required to double the levels of caspase 3/7) (HCC1143 [5]): ≥10 µM
CalX (minimum compound concentration required to double the levels of caspase 3/7) (HCC1187): 0.6418 µM
CalX (minimum compound concentration required to double the levels of caspase 3/7) (HCC1806): ≥10 µM
CalX (minimum compound concentration required to double the levels of caspase 3/7) (HCC1937): ≥10 µM
CalX (minimum compound concentration required to double the levels of caspase 3/7) (HCC2157): 1.3472 µM
CalX (minimum compound concentration required to double the levels of caspase 3/7) (HCC38): ≥10 µM
CalX (minimum compound concentration required to double the levels of caspase 3/7) (HCC70 [6]): ≥10 µM
CalX (minimum compound concentration required to double the levels of caspase 3/7) (HDQ-P1): ≥10 µM
CalX (minimum compound concentration required to double the levels of caspase 3/7) (HS578T): ≥10 µM
CalX (minimum compound concentration required to double the levels of caspase 3/7) (MB157): ≥10 µM
CalX (minimum compound concentration required to double the levels of caspase 3/7) (MDA-MB-157): ≥10 µM
CalX (minimum compound concentration required to double the levels of caspase 3/7) (MDA-MB-231): ≥10 µM
CalX (minimum compound concentration required to double the levels of caspase 3/7) (MDA-MB-436): ≥10 µM
CalX (minimum compound concentration required to double the levels of caspase 3/7) (MDA-MB-468 [7]): ≥10 µM
CalX (minimum compound concentration required to double the levels of caspase 3/7) (MT-3 [8]): 2.4106 µM
